The subject of series [1] is Helicobacter pylori. Nature of the series: Activity against Helicobacter pylori, agar method of Iwahi et al. (MIC 50). Type of series: cell-based. To be noted: Helicobacter pylori, 96 h; Columbia agar (Oxoid), growth period of 4 days; approximate values; read-out: Appr. MIC 50. The text has this: The compounds of the formula I were investigated with respect to their activity against Helicobacter pylori following the method described by Tomoyuki Iwahi et al. (Antimicrobial Agents and Chemotherapy, 1991, 490-496) using Columbia agar (Oxoid) and a growth period of 4 days.

The text below walks through data of US6395732B1, “Pyrimidin-aminomethyl-pyridine derivatives, their preparation and their use in the control of helicobacter bacteria” (BYK Gulden Lomberg Chemische Fabrik GmbH, priority 1998, dated 2002).

`Cc1nc(C)c(Cl)c(NCc2nccc(SCCCCN3CCNCC3)c2C)n1` [Compound 17, (5-Chloro-2,6-dimethylpyrimidin-4-yl)-[3-methyl-4-(4-piperazin-1-ylbutylsulfanyl)pyridin-2-ylmethyl]amine] registered a melting point of 143 to 145 °C. Besides, the MIC50 in series [1] is not above 0.1 µg/mL.
As to `CN(CCO)c1ccnc(CNc2ncncc2Cl)c1Cl` [Compound 55, 2-({3-Chloro-2-[(5-chloro-pyrimidin-4-ylamino)-methyl]-pyridin-4-yl}-methyl-amino)-ethanol], the melting point fell in the range of 158 to 161 °C. In series [1], the MIC50 is not above 0.1 µg/mL.
`Cc1nc(C)c(Cl)c(NCc2nccc(SCCCSCC3CN(C)C(=O)O3)c2C)n1` (stereo not shown) [Compound 5, 5-(3-{2-[(5-Chloro-2,6-dimethylpyrimidin-4-ylamino)methyl]-3-methylpyridin-4-yl-sulfanyl}propylsulfanylmethyl)-3-methyloxazolidin-2-one] showed a melting point of 121 °C. In series [1], the MIC50 is not above 0.1 µg/mL.
The molecule `Cc1nc(C)c(Cl)c(NCc2nccc(OCCOCCSCCO)c2C)n1` [Compound 35, 2-[2-(2-{2-[(5-Chloro-2,6-dimethyl-pyrimidin-4-ylamino)-methyl]-3-methyl-pyridin-4-yloxy}-ethoxy)-ethylsulfanyl]-ethanol] yielded a melting point of 114 to 116 °C. Also, the MIC50 in series [1] was not above 0.1 µg/mL.
Turning to `Cc1c(SCCCSCc2ccncc2)ccnc1CNc1ncncc1Cl` [Compound 8, (5-Chloropyrimidin-4-yl)-{3-methyl-4-[3-(pyridin-4-ylmethylsulfanyl)propylsulfanyl]-pyridin-2-ylmethyl}amine], the melting point is 148 to 149 °C. Further, in series [1], the MIC50 is not above 0.1 µg/mL.
In turn, `Cc1nc(C)c(Cl)c(NCc2nccc(SCc3ccco3)c2C)n1` [Compound 60, (5-Chloro-2,6-dimethyl-pyrimidin-4-yl)-[4-(furan-2-ylmethylsulfanyl)-3-methyl-pyridin-2-ylmethyl]-amine] gave a melting point of 159 to 160 °C. For the same molecule, in series [1], the MIC50 is not above 0.1 µg/mL.
Take `Cc1nc(C)c(Cl)c(NCc2nccc(OCCCSCc3ccncc3)c2C)n1` [Compound 34, (5-Chloro-2,6-dimethyl-pyrimidin-4-yl)-{3-methyl-4-[3-(pyridin-4-ylmethylsulfanyl)-propoxy]-pyridin-2-ylmethyl}-amine]: the melting point lay in the range of 111 to 113 °C. In addition, the MIC50 in series [1] was not above 0.1 µg/mL.
For `Cc1c(SCCCSCCn2c([N+](=O)[O-])cnc2C)ccnc1CNc1ncncc1Cl` [Compound 9, (5-Chloropyrimidin-4-yl)-(3-methyl-4-{3-[2-(2-methyl-5-nitroimidazol-1-yl)ethylsulfanyl]propylsulfanyl}-pyridin-2-ylmethyl)amine], in that order: 119 to 121 °C and not above 0.1 µg/mL.
Take `Cc1nc(C)c(Cl)c(NCc2nccc(SCCCSc3sccc3[N+](=O)[O-])c2C)n1` [Compound 40, (5-Chloro-2,6-dimethyl-pyrimidin-4-yl)-{3-methyl-4-[3-(3-nitro-thiophen-2-ylsulfanyl)-propylsulfanyl]-pyridin-2-ylmethyl}-amine]: the melting point is 174 to 180 °C. In addition, the MIC50 in series [1] is not above 0.1 µg/mL.
`Cc1nc(C)c(Cl)c(NCc2nccc(SCCOCCOCCSCc3ccncc3)c2C)n1` [Compound 43, (5-Chloro-2,6-dimethyl-pyrimidin-4-yl)-[3-methyl-4-(2-{2-[2-(pyridin-4-ylmethylsulfanyl)-ethoxy]-ethoxy}-ethylsulfanyl)-pyridin-2-ylmethyl]-amine] registered a melting point of 84 to 86 °C. Further, in series [1], the MIC50 was not above 0.1 µg/mL.
In the case of `Cc1nc(C)c(Cl)c(NCc2nccc(N(C)CCCSCCn3c([N+](=O)[O-])cnc3C)c2Cl)n1` [Compound 18, (5-Chloro-2,6-dimethylpyrimidin-4-yl)-[3-chloro-4-(methyl-{3-[2-(2-methyl-5nitroimidazol-1-yl)ethylsulfanyl]propyl}amino)pyridin-2-ylmethyl]amine], the melting point was 123 to 126 °C. Also, in series [1], the MIC50 was not above 0.1 µg/mL.
In turn, `Cc1nc(C)c(Cl)c(NCc2nccc(SCCCSCc3ccccn3)c2C)n1` [Compound 48, (5-Chloro-2,6-dimethyl-pyrimidin-4-yl)-{3-methyl-4-[3-(pyridin-2-ylmethylsulfanyl)-propylsulfanyl]-pyridin-2-ylmethyl}-amine] registered a melting point of 100 to 101 °C. Also, in series [1], the MIC50 was not above 0.1 µg/mL.
Regarding `Cc1nc(C)c(Cl)c(NCc2nccc(SCCOCCSCc3ccccn3)c2C)n1` [Compound 53, (5-Chloro-2,6-dimethyl-pyrimidin-4-yl)-(3-methyl-4-{2-[2-(pyridin-2-ylmethylsulfanyl)-ethoxy]ethylsulfanyl}-pyridin-2-ylmethyl)-amine], the melting point was 70 to 72 °C. The MIC50 in series [1] was not above 0.1 µg/mL.
For `Cc1nc(C)c(Cl)c(NCc2nccc(SCCCCSCCO)c2C)n1` [Compound 37, 2-(4-{2-[(5-Chloro-2,6-dimethyl-pyrimidin-4-ylamino)-methyl]-3-methyl-pyridin-4-ylsulfanyl}-butylsulfanyl)-ethanol], in that order: 142 to 143 °C and not above 0.1 µg/mL.
For `Cc1c(SCc2ccco2)ccnc1CNc1ncncc1Cl` [Compound 59, (5-Chloro-pyrimidin-4-yl)-[4-(furan-2-ylmethylsulfanyl)-3-methyl-pyridin-2-ylmethyl]-amine], in that order: 169 to 170 °C and not above 0.1 µg/mL.
Turning to `Cc1nc(C)c(Cl)c(NCc2nccc(OCCCSCCn3c([N+](=O)[O-])cnc3C)c2C)n1` [Compound 33, (5-Chloro-2,6-dimethyl-pyrimidin-4-yl)-(3-methyl-4-{3-[2-(2-methyl-5-nitro-imidazol-1-yl)-ethylsulfanyl]-propoxy}-pyridin-2-ylmethyl)-amine], the melting point lay in the range of 169 to 171 °C. The MIC50 in series [1] is not above 0.1 µg/mL.
`Cc1nc(C)c(Cl)c(NCc2nccc(OCCOCCSCc3ccncc3)c2C)n1` [Compound 29, (5-Chloro-2,6-dimethyl-pyrimidin-4-yl)-(3-methyl-4-{2-[2-(pyridin-4-ylmethylsulfanyl)-ethoxy]-ethoxy}-pyridin-2-ylmethyl)-amine] displayed a melting point of 103 to 105 °C. Moreover, in series [1], the MIC50 is not above 0.1 µg/mL.
